Results published in US20250288647A1, “ANGIOGENESIS INHIBITING PEPTIDE AND USE THEREOF” (SEOUL NATIONAL UNIVERSITY HOSPITAL, priority 2021, published 2025).

B1: KAI1 protein: KAI1 protein (CD82), which is known to bind to VEGF and PDGF; comparative group (protein, UniProt P27701 1-267, looked up)
CD82 antigen: MGSACIKVTKYFLFLFNLIFFILGAVILGFGVWILADKSSFISVLQTSSSSLRMGAYVFIGVGAVTMLMGFLGCIGAVNEVRCLLGLYFAFLLLILIAQVTAGALFYFNMGKLKQEMGGIVTELIRDYNSSREDSLQDAWDYVQAQVKCCGWVSFYNWTDNAELMNRPEVTYPCSCEVKGEEDNSLSVRKGFCEAPGNRTQSGNHPEDWPVYQEGCMEKVQAWLQENLGIILGVGVGVAIIELLGMVLSICLCRHVHSEDYSKVPKY

What was measured:
PDGF receptor [1] = assay: Surface plasmon resonance (SPR) binding test, Biacore T200; details: PDGF receptor 400 ng/ml, CM5 chip
Procedure: (§1) It was confirmed that the prepared peptides have binding affinity to VEGF receptors and PDGF receptors using surface plasmon resonance (SPR). More specifically, SPR was performed using a Biacore T200 (GE Healthcare) device and a CM5 chip (GE Healthcare, Cat #. BR-1005-30), and the obtained results were analyzed using BIAevaluation software version 3.0 (GE Healthcare). For a binding test, a concentration of 200 ng/mL was used for the VEGF receptor and a concentration of 400 ng/ml was used for the PDGF receptor.

VEGF receptor [2] = assay: as above; details: VEGF receptor 200 ng/mL, CM5 chip
Procedure: as §1

PDGF receptor [3] = assay: Real-time degree of binding using BLtz instrument (ForteBio); details: FIGS. 2A to 2I
From the text: (§2) FIG. 2 is a view showing the results of confirming the degree of binding of the peptides using BLtz system according to an exemplary embodiment of the present invention to a VEGF receptor and a PDGF receptor. FIG. 2A is a view showing the results of Peptides 1 to 3, FIG. 2B is a view showing the results of Peptide 8, FIG. 2C is a view showing the results of Peptide 9, FIG. 2D is a view showing the results of Peptide 10, FIG. 2E is a view showing the results of Peptide 11, FIG. 2F is a view showing the results of Peptide 12, FIG. 2G is a view showing the results of Peptide 13, FIG. 2H is a view showing the results of Peptide 14, and FIG. 2I is a view showing the results of Peptide 15.
(§3) In addition, the degree of binding between the peptides and the receptors was confirmed in real time using a BLtz instrument (ForteBio).

VEGF receptor [4] = assay: as above; details: FIGS. 2A to 2I
From the text: as §2, §3

[5] = test system: MDA-MB-231 breast cancer cell line; assay: Anticancer effect: MDA-MB-231 cells mixed with peptide and Matrigel injected subcutaneously, size of cancer; assay type: in vivo, NSG mice; details: 14 days after subcutaneous injection with 2×10^6 MDA-MB-231 cells and Matrigel, compared to PBS control, FIG. 3
Procedure: (§4) As a control, an equal amount of phosphate buffered saline (PBS) was mixed with Matrigel and injected. After the mice were euthanized 14 days later, cancer tissue was obtained and the size of cancer was measured. All animal handling and procedures were performed in accordance with research protocols approved by the Animal Care and Use Committee of Seoul National University Hospital. Thereafter, in all experiments, statistical significance between two groups was confirmed by a Student's t-test, and when P<0.05, it was determined to be statistically significant. Then, the obtained cancer tissue was fixed using a 4% paraformaldehyde solution, embedded using paraffin, and then cut to a thickness of […] to prepare a tissue section. The prepared tissue section was then stained using a CD31 antibody (Abcam) that specifically binds to CD31, a blood vessel-specific gene, and DAPI.

CD31 = CD31 staining of cancer tissue sections (angiogenesis in cancer tissue); assay type: in vivo, NSG mice; details: tissue sections of cancer tissue obtained at 14 days, FIG. 4
Procedure: as §4

[6] = test system: mice with oxygen-induced retinopathy; assay: Oxygen-induced retinopathy mice, intravitreal injection, isolectin staining, area of neovascular tufts; assay type: in vivo; details: 1 μL intravitreal, right eye, 5 days after injection, FIGS. 5 and 6
Procedure: Two days later, for the prepared mice with retinopathy, 1 μL of phosphate buffer solution, Peptide 1, Peptide 4, and KAI1 protein (CD82), which is known to bind to VEGF and PDGF, were intravitreally injected to the right eye of each of the mice, respectively. Mice were euthanized 5 days after injection and enucleated eyes were prepared. The prepared enucleated eye was immunostained using 5 μg/mL Alexa Fluor 594 isolectin GS-IB4 conjugate (Invitrogen), and then observed using a fluorescence microscope. Thereafter, the area of neovascular tufts was quantified as a percentage of the total retina using Image J (NIH).

Molecule | binding to the PDGF receptor (SPR) (PDGF receptor [1]) | binding to the VEGF receptor (SPR) (VEGF receptor [2]) | degree of binding to the PDGF receptor (BLtz) (PDGF receptor [3]) | degree of binding to the VEGF receptor (BLtz) (VEGF receptor [4]) | size of cancer [5] | CD31 antibody staining (fluorescence intensity) in cancer tissue (CD31) | angiogenesis inhibitory effect in retinopathy (area of neovascular tufts as percentage of total retina) [6]
NRPEVTYPCSCEVKGEEDNS [Peptide 1] | bound strongly | bound strongly | highest binding affinity | highest binding affinity | size of cancer was inhibited compared to the control | almost no portion stained with a CD31 antibody | angiogenesis inhibitory effect similar to that of the comparative group administered the KAI1 protein
NRPEVTAPASCEVKGAAANS [Peptide 4] |  |  |  |  | size of cancer was remarkably increased | remarkably high | did not show an angiogenesis inhibitory effect
NHPEDWPVYQEGC [Peptide 15] | bound strongly | bound strongly | stably bound | stably bound |  |  | 
NRPEVTYPCSCEVKGAAANS [Peptide 3] |  |  | weak binding affinity | weak binding affinity |  |  | 
NRPEVTAPASCEVKGEEDNS [Peptide 2] | bound weakly | bound weakly | weak binding affinity | weak binding affinity |  |  | 
SFYNWTDNAELMN [Peptide 9] | bound strongly | bound strongly | stably bound | stably bound |  |  | 
B1 |  |  |  |  |  |  | angiogenesis inhibitory effect
